Reference: patent US9023789B2, “Amylin analogs and pharmaceutical compositions thereof” (Novo Nordisk A/S, priority 2012, dated 2015)
Like-named read-outs stand apart in the source and are kept apart here. Numbered stars: 1 amine (or outer) side, 2 acyl side, 3 side chain; on linkers, the order of the positions; unused ones are H or OH. Bridge positions count the residues as written; N and C are the ends. Peptide text beside a SMILES is read from it. * marks the point of attachment. C20 diacid = O=C(O)CCCCCCCCCCCCCCCCCCC(=O)*; γGlu = O=C(O)[C@H](CCC(=O)[*:2])N[*:1]

Assays:
[1] = ASSAY (IV) determination of solubility; format: physicochemical
Summary of the method: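 UPLC read-out of polypeptide concentration after centrifugation. Samples: aqueous polypeptide stock ([…]) + 100 mM buffer 1:1, glycylglycine pH 3.0–5.0 or bistrispropane pH 6.0–8.0; 18 h, RT.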

[2] = target: T1, human amylin receptor (membranes from Amylin 3(a)/CRE-luc cells) (Homo sapiens, UniProt O60896+P30988); assay: ASSAY (V) binding to the human amylin receptor (SPA, 125I-rat amylin);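 further: competition binding of cell membranes (35 ng/µL) mixed with SPA beads in 384-well plates at 40 µL total volume, read by scintillation counting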
T1 construct: expressed in transfected cells
T1 sequence (P30988 25-474): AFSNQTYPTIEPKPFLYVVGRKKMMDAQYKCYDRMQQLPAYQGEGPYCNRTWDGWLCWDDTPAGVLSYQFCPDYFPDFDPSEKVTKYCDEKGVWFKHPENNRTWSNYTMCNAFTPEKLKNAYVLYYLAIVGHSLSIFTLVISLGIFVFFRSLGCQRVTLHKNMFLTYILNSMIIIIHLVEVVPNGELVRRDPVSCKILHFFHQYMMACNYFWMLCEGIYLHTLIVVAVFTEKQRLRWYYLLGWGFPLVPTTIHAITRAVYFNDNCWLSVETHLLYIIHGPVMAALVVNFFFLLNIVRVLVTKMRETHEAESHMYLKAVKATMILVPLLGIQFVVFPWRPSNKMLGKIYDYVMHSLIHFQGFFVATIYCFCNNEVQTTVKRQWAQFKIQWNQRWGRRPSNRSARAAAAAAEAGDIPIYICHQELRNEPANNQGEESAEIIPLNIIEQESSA
T1 sequence (O60896 24-148 partner): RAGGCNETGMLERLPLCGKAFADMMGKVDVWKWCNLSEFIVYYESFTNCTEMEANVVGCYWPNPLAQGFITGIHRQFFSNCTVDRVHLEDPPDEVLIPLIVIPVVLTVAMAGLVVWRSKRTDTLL

rat calcitonin receptor = target: T2, rat calcitonin receptor (Rattus norvegicus, UniProt P32214); assay: ASSAY (VIII) binding to the rat calcitonin receptor; conditions: Table 7, read-out: rCTR bind IC50
T2 construct: expressed in transfected cells; host or cells: BHK tk'ts 13 (transient, FuGENE 6), membranes
T2 sequence (P32214 25-479 isoform P32214-2 limits assumed): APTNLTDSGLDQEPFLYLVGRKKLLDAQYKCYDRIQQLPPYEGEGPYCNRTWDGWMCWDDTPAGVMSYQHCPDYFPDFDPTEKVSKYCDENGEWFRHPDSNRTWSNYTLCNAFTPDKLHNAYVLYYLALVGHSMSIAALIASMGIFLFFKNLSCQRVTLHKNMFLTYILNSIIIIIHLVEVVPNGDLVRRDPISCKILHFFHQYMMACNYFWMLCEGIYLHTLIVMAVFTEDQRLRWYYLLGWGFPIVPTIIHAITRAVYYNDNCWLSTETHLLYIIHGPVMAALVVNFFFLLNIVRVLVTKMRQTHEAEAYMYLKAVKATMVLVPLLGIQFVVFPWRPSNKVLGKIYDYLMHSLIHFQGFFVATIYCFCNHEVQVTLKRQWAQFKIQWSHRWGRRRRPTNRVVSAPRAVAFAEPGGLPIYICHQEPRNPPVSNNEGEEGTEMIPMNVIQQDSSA
Summary of the method: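 Receptor source: membranes from transiently transfected BHK tk′ts 13 cells expressing rat calcitonin receptor, collected roughly 48 hours after transfection.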

[3] = target: T3, human amylin 3(a) receptor (human calcitonin receptor + RAMP-3) in BHK570 cells (Homo sapiens, UniProt O60896+P30988); assay: ASSAY (II)a functional assay, human amylin receptor (CRE luciferase); format: cell-based
T3 construct: expressed in transfected cells
Summary of the method: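 Functional agonism was measured by CRE-luciferase reporter luminescence in BHK cells bearing calcitonin receptor, or calcitonin receptor plus RAMP-3 as the amylin 3(a) receptor. Stimulation lasted 3 hours at 37° C.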

[4] = target: T4, rat amylin receptor (rat calcitonin receptor + rat RAMP 3) (Rattus norvegicus, UniProt P32214+Q9JJ73); assay: ASSAY (VI) binding to the rat amylin receptor; conditions: for IC50: binding to rat amylin receptor, read-out: rAmylin-R bind IC50
T4 construct: expressed in transfected cells; host or cells: BHK tk'ts 13 (transient, FuGENE 6), membranes
T4 sequence (P32214 25-479 isoform P32214-2 limits assumed): T2 sequence (P32214 25-479 isoform P32214-2 limits assumed)
T4 sequence (Q9JJ73 23-147 partner): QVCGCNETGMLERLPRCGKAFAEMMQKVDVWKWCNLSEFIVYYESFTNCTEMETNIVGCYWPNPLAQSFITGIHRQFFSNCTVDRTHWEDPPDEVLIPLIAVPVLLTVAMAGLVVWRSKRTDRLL
Summary of the method: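 The cell-membrane assay assessed binding at the rat amylin receptor. BHK tk′ts 13 cells were transfected transiently with rat calcitonin receptor, with FuGENE® 6 (Roche) as the transfection reagent, used per the manufacturer's recommendations. Approximately 48 hours after transfection the cells were harvested, and membranes were prepared for measuring binding.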

[5] = bistrispropane buffer, pH 6.5, read-out: Solubility pH 6.5 Concentration
[6] = bistrispropane buffer, pH 7.5, read-out: Solubility pH 7.5 Concentration
[7] = bistrispropane buffer, pH 6.0, read-out: Solubility pH 6.0 Concentration
[8] = bistrispropane buffer, pH 7.0, read-out: Solubility pH 7.0 Concentration
[9] = bistrispropane buffer, pH 8.0, read-out: Solubility pH 8.0 Concentration
[10] = glycylglycine buffer, pH 3.0, read-out: Solubility pH 3.0 Concentration
[11] = glycylglycine buffer, pH 4.0, read-out: Solubility pH 4.0 Concentration
[12] = glycylglycine buffer, pH 5.0, read-out: Solubility pH 5.0 Concentration
[13] = Table 5, selectivity, hCTR bind IC50 / hAmylin-R bind IC50
[14] = Table 7, human binding selectivity, included for comparison
[15] = Table 7a (preferred compounds), human binding selectivity, included for comparison
[16] = hCTR funct. EC50 over hAmylin-R funct. EC50
[17] = human functional selectivity: hCTR funct. EC50 / hAmylin-R funct. EC50
[18] = Table 7, rat binding selectivity, rCTR IC50 / rAmylin-R IC50
[19] = Table 7a (preferred compounds), rat binding selectivity, rCTR IC50 / rAmylin-R IC50
[20] = Table 5a, selectivity, hCTR bind IC50 / hAmylin-R bind IC50
[21] = Table 5b, selectivity, hCTR bind IC50 / hAmylin-R bind IC50
[22] = Table 5c, selectivity, hCTR bind IC50 / hAmylin-R bind IC50
[23] = ratio of human calcitonin receptor binding IC50 to human amylin receptor binding IC50
[24] = hCTR funct. EC50 divided by hAmylin-R funct. EC50
[25] = ratio of rCTR bind IC50 to rAmylin-R bind IC50

solubility at 18 h [1, 5]	solubility at 18 h [1, 6]	solubility at 18 h [1, 7]	solubility at 18 h [1, 8]	solubility at 18 h [1, 9]	solubility at 18 h [1, 10]	solubility at 18 h [1, 11]	solubility at 18 h [1, 12]	Ratio hCT/hAmylin binding [2, 13]	Ratio hCT/hAmylin binding [2, 14]	Ratio hCT/hAmylin binding [2, 15]	IC50 (rat calcitonin receptor)	Ratio hCT/hAmylin funct. [3, 16]	Ratio hCT/hAmylin funct. [3, 17]	IC50 ([4]; Table 7)	Ratio rCT/rAmylin binding [4, 18]	Ratio rCT/rAmylin binding [4, 19]	Ratio hCT/hAmylin binding [2, 20]	Ratio hCT/hAmylin binding [2, 21]	Ratio hCT/hAmylin binding [2, 22]	SMILES	also measured
≥ 200 µM	≥ 200 µM	≥ 200 µM	≥ 200 µM	≥ 200 µM	≥ 200 µM	≥ 200 µM	≥ 200 µM	3.9	3.9	3.9	28.9 nM	2.2	2.2	2.29 nM	12.6	12.6	–	–	–	CC[C@H](C)[C@H](NC(=O)[C@H](C)NC(=O)CNC(=O)[C@H](Cc1ccccc1)NC(=O)[C@H](CC(N)=O)NC(=O)[C@@H]1CCCN1C(=O)[C@H](CO)NC(=O)[C@H](CO)NC(=O)[C@H](Cc1c[nH]cn1)NC(=O)[C@H](CCCNC(=N)N)NC(=O)[C@H](CC(C)C)NC(=O)[C@H](Cc1ccccc1)NC(=O)[C@H](CCC(=O)O)NC(=O)[C@H](C)NC(=O)[C@H](CC(C)C)NC(=O)[C@H](CCCNC(=N)N)NC(=O)[C@H](CCC(N)=O)NC(=O)[C@@H](NC(=O)[C@H](C)NC(=O)[C@@H]1CSSC[C@H](NC(=O)[C@H](CCCCN)NC(=O)CC[C@H](NC(=O)CCCCCCCCCCCCCCCCCCC(=O)O)C(=O)O)C(=O)N[C@@H](CC(N)=O)C(=O)N[C@@H]([C@@H](C)O)C(=O)N[C@@H](C)C(=O)N[C@@H]([C@@H](C)O)C(=O)N1)[C@@H](C)O)C(=O)N[C@@H](CC(C)C)C(=O)N1CCC[C@H]1C(=O)N[C@@H](CO)C(=O)N[C@H](C(=O)N[C@@H](CC(N)=O)C(=O)N[C@H](C(=O)NCC(=O)N[C@@H](CO)C(=O)N[C@@H](CCC(=O)O)C(=O)N[C@H](C(=O)N[C@@H](Cc1ccc(O)cc1)C(N)=O)[C@@H](C)O)C(C)C)[C@@H](C)O [Example 33] ({C20 diacid-γGlu}-KCNTATCATQRLAEFLRHSSPNFGAILPSTNVGSETY-NH2; disulfide 2-7)	IC50 ([2]; Table 4, read-out: hAmylin-R bind IC50): 0.915 nM; Ratio hCT/hAmylin funct. ([3]; hCTR funct. EC50 / hAmylin-R funct. EC50): 2.2; EC50 ([3]; human amylin receptor functional potency, assay (II), read-out: hAmylin-R funct. EC50): 0.243 nM
≥ 200 µM	≥ 200 µM	≥ 200 µM	≥ 200 µM	≥ 200 µM	≥ 200 µM	≥ 200 µM	≥ 200 µM	36.7	36.7	36.7	95.6 nM	17.4	17.4	1.02 nM	93.6	93.6	36.7	36.7	36.7	CC[C@H](C)[C@H](NC(=O)[C@H](C)NC(=O)CNC(=O)[C@H](Cc1ccccc1)NC(=O)[C@H](CC(N)=O)NC(=O)[C@@H]1CCCN1C(=O)[C@H](CO)NC(=O)[C@H](CO)NC(=O)[C@H](Cc1c[nH]cn1)NC(=O)[C@H](CCCNC(=N)N)NC(=O)[C@H](CC(C)C)NC(=O)[C@H](Cc1ccccc1)NC(=O)[C@H](CCC(=O)O)NC(=O)[C@H](C)NC(=O)[C@H](CC(C)C)NC(=O)[C@H](CCCNC(=N)N)NC(=O)[C@H](CCC(N)=O)NC(=O)[C@@H](NC(=O)[C@H](C)NC(=O)[C@@H]1CSSC[C@H](NC(=O)[C@H](CCCCN)NC(=O)COCCOCCNC(=O)COCCOCCNC(=O)CC[C@H](NC(=O)CCCCCCCCCCCCCCCCCCC(=O)O)C(=O)O)C(=O)N[C@@H](CC(N)=O)C(=O)N[C@@H]([C@@H](C)O)C(=O)N[C@@H](C)C(=O)N[C@@H]([C@@H](C)O)C(=O)N1)[C@@H](C)O)C(=O)N1CCC[C@H]1C(=O)N[C@@H](CO)C(=O)N[C@@H](CO)C(=O)N[C@H](C(=O)N[C@@H](CC(N)=O)C(=O)N[C@H](C(=O)NCC(=O)N[C@@H](CO)C(=O)N[C@@H](CC(N)=O)C(=O)N[C@H](C(=O)N[C@@H](Cc1ccc(O)cc1)C(N)=O)[C@@H](C)O)C(C)C)[C@@H](C)O [Example 19]	Ratio hCT/hAmylin binding [2, 23]: 36.7; Ratio hCT/hAmylin funct. [3, 24]: 17.4; Ratio rCT/rAmylin binding [4, 25]: 93.6
≥ 200 µM	≥ 200 µM	≥ 200 µM	≥ 200 µM	≥ 200 µM	≥ 200 µM	≥ 200 µM	≥ 200 µM	90.0	90.0	90.0	350 nM	23.1	23.1	3.01 nM	116.3	116.3	90.0	90.0	90.0	CC[C@H](C)[C@H](NC(=O)[C@H](C)NC(=O)CNC(=O)[C@H](Cc1ccccc1)NC(=O)[C@H](CC(N)=O)NC(=O)[C@@H]1CCCN1C(=O)[C@H](CO)NC(=O)[C@H](CO)NC(=O)[C@H](Cc1c[nH]cn1)NC(=O)[C@H](CCCNC(=N)N)NC(=O)[C@H](CC(C)C)NC(=O)[C@H](Cc1ccccc1)NC(=O)[C@H](CC(N)=O)NC(=O)[C@H](C)NC(=O)[C@H](CC(C)C)NC(=O)[C@H](CCCNC(=N)N)NC(=O)[C@H](CCC(N)=O)NC(=O)[C@@H](NC(=O)[C@H](C)NC(=O)[C@@H]1CSSC[C@H](NC(=O)[C@H](CCCCN)NC(=O)COCCOCCNC(=O)COCCOCCNC(=O)CC[C@H](NC(=O)CCCCCCCCCCCCCCCCCCC(=O)O)C(=O)O)C(=O)N[C@@H](CC(N)=O)C(=O)N[C@@H]([C@@H](C)O)C(=O)N[C@@H](C)C(=O)N[C@@H]([C@@H](C)O)C(=O)N1)[C@@H](C)O)C(=O)N1CCC[C@H]1C(=O)N[C@@H](CO)C(=O)N[C@@H](CO)C(=O)N[C@H](C(=O)N[C@@H](CC(N)=O)C(=O)N[C@H](C(=O)NCC(=O)N[C@@H](CO)C(=O)N[C@@H](CC(N)=O)C(=O)N[C@H](C(=O)N[C@@H](Cc1ccc(O)cc1)C(N)=O)[C@@H](C)O)C(C)C)[C@@H](C)O [Example 24]	Ratio hCT/hAmylin binding [2, 23]: 90.0; Ratio hCT/hAmylin funct. [3, 24]: 23.1; Ratio rCT/rAmylin binding [4, 25]: 116.3
